Laboratory results published in patent publication US20160176859A1, “High-Throughput Assay for Identifying Small Molecules that Modulate AMP-activated Protein Kinase (AMPK)” (North Carolina Central University, priority 2013, published 2016).
Entries after “also recorded” stand apart in the source; their conditions may differ. Where two headings read alike, the source gives them in different places.

Columns and labels:
[1] = test system: p-AMPK levels in HEK cells; test: Cell-intact assay, p-AMPK levels in HEK cells; format: cell-based, human; settings: serum starvation followed by 10% serum; 1 hour
Experimental: (§1) Cell-intact assays. HEK cells were grown in DMEM with 10% FBS and 1% penicillin/streptomycin at 37° C. A subset of plates was serum-starved for 5 hours on the day of the experiment. After 5 hours of serum-starvation, cells were treated with either controls (0.2% DMSO, A-769662, or Compound C) or small molecules in the absence of serum for an additional hour prior to lysis. Another subset of plates was serum-starved for 6 hours and then treated with either controls or small molecules for 1 hour in the presence of 10% FBS. A time course of both AMPK and ACC phosphorylation in HEK cells during serum starvation has already been published (Pirkmajer S, Chibalin A V. Serum starvation: caveat emptor. American journal of physiology Cell physiology. 2011 August; 301(2):C272-9. PubMed PMID: 2161361).
After incubating in the presence of drugs for one hour, cells were washed three times with ice-cold PBS and lysed according to published methods (Kazgan N, Williams T, Forsberg L J, Brenman J E. Identification of a nuclear export signal in the catalytic subunit of AMP-activated protein kinase. Molecular biology of the cell. 2010 Oct. 1; 21(19):3433-42. PubMed PMID: 20685962. Pubmed Central PMCID: 2947478). […] The concentration of protein in diluted clarified supernatant was calculated using a DC protein assay kit (BioRad) prior to western analyses. […]

[2] = test system: p-ACC levels in HEK cells; test: Cell-intact assay, p-ACC levels in HEK cells; format: cell-based, human; settings: for p-ACC levels (substrate phosphorylation), pre-conditioned HEK cells: serum starvation followed by 10% serum, 1 hour
Experimental: as §1
After incubating in the presence of drugs for one hour, cells were washed three times with ice-cold PBS and lysed according to published methods (Kazgan N, Williams T, Forsberg L J, Brenman J E. Identification of a nuclear export signal in the catalytic subunit of AMP-activated protein kinase. Molecular biology of the cell. 2010 Oct. 1; 21(19):3433-42. PubMed PMID: 20685962. Pubmed Central PMCID: 2947478). Lysates were centrifuged at 16,000 g (10 minutes, 4° C.). Clarified supernatant (30 μL) was then transferred to 10 μL 4X loading buffer and 2 μL 1 M DTT. Samples were immediately frozen at −20° C. The concentration of protein in diluted clarified supernatant was calculated using a DC protein assay kit (BioRad) prior to western analyses.
(§2) Western analyses. Protein samples were boiled for 15 minutes in loading buffer and DTT prior to SDS-PAGE. Blots for protein-based assays were sequentially incubated with the following: 5% BSA in 1× TBS (1 hr, 22° C.), 1:1000 rabbit anti-human p-AMPK-α antibody or p-ACC antibody (2 hr, 22° C.), and 1:10,000 donkey anti-rabbit secondary antibody (1 hr, 22° C.). Blots for phosphatase assays were probed a second time using 1:100 mouse anti-human total AMPK antibody (overnight, 4° C.; from UNC Antibody Core Facility) followed by 1:10,000 donkey anti-mouse secondary antibody (1 hr, 22° C.). Blots for clarified cell lysates were sequentially probed for p-AMPK (1:500 dilution, overnight at 4° C. or 4 hours at 22° C.), total ACC (1:1000 dilution, overnight at 4° C. or 4 hours at 22° C.), and tubulin (1:10,000 dilution, 1 hr, 22° C.); a parallel set of blots were probed for p-ACC (1:500 dilution, overnight at 4° C. or 4 hours at 22° C.), total AMPK (1:1000 dilution, overnight at 4° C. or 4 hours at 22° C.), and tubulin (1:10,000 dilution, 1 hr, 22° C.). Because phosphorylated and total protein were imaged on separate membranes, the signals were normalized to the internal tubulin signal prior to calculating the ratio of phosphorylated to total protein. Scanning and imaging were completed according to published methods.

HEK cells = test: Cell-intact assay, attachment of HEK cells to tissue culture plates; format: cell-based, human; settings: absence of serum
Experimental: as §1

[3] = target: T1, full-length AMPK (rat His-α1, β1, γ1) (Rattus norvegicus, UniProt P54645+P80385); test: MANT-ADP fluorescence displacement (binding) assay, full-length AMPK; settings: for displacement of MANT-ADP: full-length AMPK compared with regulatory fragment: compared in parallel; for IC50: full-length AMPK
T1 construct: Tricistronic vectors encoding full-length AMPK (rat His-α1, β1, γ1); made in house; host or cells: Rosetta cells (E. coli), tricistronic vector, gift of Dr. Uwe Schlattner
Experimental: (§3) Except where otherwise noted, assays were performed with the following conditions: 0.5 μM full-length AMPK (130 kDa) or 0.5 μM regulatory fragment (66.7 kDa), 0.1 μM MANT-ADP, 10 mM Tris-HCl (pH 8), 0.45% DMSO (vehicle and negative control), and 5 μM ADP (positive control). Automated assays were assembled in two steps. First, a NanoQuot (BioTek) was used to dispense 11 μL of master mix (protein, MANT-ADP, and Tris-HCl) per well in black, low volume 384-well plates (Corning-3676). Next, a Biomek NX workstation (Beckman-Coulter, Brea, Calif.) equipped with pintools (VP Scientific, San Diego Calif.) was used to transfer 50 nL of controls (columns 1, 2, 23, and 24) and small molecules (4.5 μM final). Controls and library molecules were transferred from Axygen 384-well rigid PCR plates (Cat no. 321-67-051) at 221× concentration for single-concentration screening. Plates were shaken for 10 minutes prior to reading.
(§4) Fluorescence emission spectra of MANT-ADP were collected using a PerkinElmer EnSpire plate reader with an excitation wavelength of 360 nm. Background fluorescence from protein was subtracted from the raw data prior to plotting MANT-ADP's fluorescence in the presence of protein. Fluorescence detection for assay development and screening was performed on either a BMG Pherastar Plus (360/10 excitation and 460/10 emission filters) or a PerkinElmer EnVision (355/40 excitation and 460/25 emission filters), depending on equipment availability. Relative fluorescence units (RFUs) were recorded at room temperature.
(§5) ScreenAble (ScreenAble Solutions, Chapel Hill, N.C.) high-throughput screening software was utilized for merging screening data and chemical structure, for statistical design of experiments, and hit selection. GraphPad Prism was used for non-linear regression analysis of dose response data.
(§6) Binding assays. Except where otherwise noted, assay assembly and data analysis were completed according to published methods. Binding assays were manually assembled, with the exception of the similarity screen. Automated assembly of the similarity screen was completed according to published methods. Analogs were cherry-picked from a 10 mM Asinex small molecule library and a 0.5 mM kinase focused library, which has been described previously (4). Molecules were screened at a final concentration of 45 and 2.3 μM, respectively.

[4] = target: T2, p-AMPK in the presence of PP2C (Rattus norvegicus, UniProt P54645+P80385); test: Phosphatase assay: protection of p-AMPK from dephosphorylation by PP2C; format: biochemical; settings: p-AMPK/total AMPK ratio normalized to no-PP2C control
T2 construct: Full-length AMPK intended for use in phosphatase and kinase assays was purified, mixed with GST-CaMKKβ; made in house; host or cells: Rosetta cells (E. coli); phosphorylated in vitro with GST-CaMKKβ, which was then removed
Experimental: Phosphatase assays. Assay conditions were adapted from published methods (18). In short, the final assay buffer was compromised of 50 mM Tris (pH 7.5), […], 0.01% Triton X-100, 1 mM DTT, and 0.45% DMSO (vehicle). Because some analogs had poor solubility at high concentrations, all analogs and controls were diluted in assay buffer and centrifuged (1 min, 5000 rpm, 4° C.) to remove insoluble matter. PP2C and p-AMPK were added to the supernatant at final concentrations of 2 and 3 ng/μL, respectively. Phosphatase reactions were allowed to proceed for 30 minutes at 37° C. Reactions were stopped by the addition of loading buffer and 48 mM DTT followed promptly by freezing at −20° C.
Western analyses. Protein samples were boiled for 15 minutes in loading buffer and DTT prior to SDS-PAGE. Blots for protein-based assays were sequentially incubated with the following: 5% BSA in 1× TBS (1 hr, 22° C.), 1:1000 rabbit anti-human p-AMPK-α antibody or p-ACC antibody (2 hr, 22° C.), and 1:10,000 donkey anti-rabbit secondary antibody (1 hr, 22° C.). Blots for phosphatase assays were probed a second time using 1:100 mouse anti-human total AMPK antibody (overnight, 4° C.; from UNC Antibody Core Facility) followed by 1:10,000 donkey anti-mouse secondary antibody (1 hr, 22° C.). […]

purified p-AMPK = target: T3, purified p-AMPK (Rattus norvegicus, UniProt P54645+P80385); test: Kinase assay with purified p-AMPK and GST-ACC peptide; format: biochemical
T3 construct: Full-length AMPK intended for use in phosphatase and kinase assays was purified, mixed with GST-CaMKKβ; made in house; host or cells: Rosetta cells (E. coli); phosphorylated in vitro with GST-CaMKKβ, which was then removed on glutathione resin
Experimental: Kinase assays. Assay conditions were adapted from published methods (17). The final assay buffer was comprised of 40 mM Hepes (pH 7.4) 5 mM MgCl2, 200 μM ATP, 75 mM NaCl, 0.01% Triton X-100, 1 mM DTT, and 0.45% DMSO (vehicle). Because some analogs had poor solubility at high concentrations, all analogs and controls were diluted in assay buffer and centrifuged (1 min, 5000 rpm, 4° C.) to remove insoluble matter. GST-ACC peptide and p-AMPK were thawed, diluted in assay buffer, and then added to the supernatant at final concentrations of 900 and 0.1 ng/μL, respectively. Kinase assays were assembled on ice; reactions were allowed to proceed for 30 minutes at room temperature. Reactions were stopped by the addition of loading buffer and 48 mM DTT followed promptly by freezing at −20° C.
as §2

[5] = target: T4, AMPK regulatory fragment (rat His-α1, 396-548; human β2, 187-272; rat γ1) (Rattus norvegicus, UniProt P80385); test: MANT-ADP fluorescence displacement (binding) assay, AMPK regulatory fragment; settings: MANT-ADP with no protein = 100% inhibition, read-out: IC50, inhibition of the increase in MANT-ADP fluorescence
T4 construct: rat His-α1, 396-548; human β2, 187-272; rat γ1; made in house; host or cells: Rosetta cells (E. coli), tricistronic vector, gift of Dr. Steve Gamblin
Experimental: as §3, §4, §5, §6

full-length His-AMPK = target: T5, full-length His-AMPK (Rattus norvegicus, UniProt P54645+P80385); test: Isothermal titration calorimetry; format: binding; settings: both sites; 5 mM phosphate buffer (pH 7.4), room temperature; n=1; read-out: calculated dissociation constants
T5 construct: Tricistronic vectors encoding full-length AMPK (rat His-α1, β1, γ1); made in house; host or cells: Rosetta cells (E. coli), tricistronic vector, gift of Dr. Uwe Schlattner
Experimental: ITC. A MicroCal Auto-iTC200 system (GE Healthcare, Pittsburgh, Pa.) was used to study binding interactions between ADP and full-length His-AMPK at room temperature in the presence of 5 mM phosphate buffer (pH 7.4). To decrease the ionic strength of the buffer, full-length AMPK frozen in 50 mM phosphate buffer was thawed, diluted in 5 mM phosphate buffer (pH 7.4) and then concentrated via centrifugal filtration. At the start of the ITC experiment, the concentrations of His-AMPK (in the sample cell) and ADP (in the syringe) were 70 μM and 1.4 mM, respectively.

T3 sequence (P54645 with tags, fused parts or gaps limits assumed): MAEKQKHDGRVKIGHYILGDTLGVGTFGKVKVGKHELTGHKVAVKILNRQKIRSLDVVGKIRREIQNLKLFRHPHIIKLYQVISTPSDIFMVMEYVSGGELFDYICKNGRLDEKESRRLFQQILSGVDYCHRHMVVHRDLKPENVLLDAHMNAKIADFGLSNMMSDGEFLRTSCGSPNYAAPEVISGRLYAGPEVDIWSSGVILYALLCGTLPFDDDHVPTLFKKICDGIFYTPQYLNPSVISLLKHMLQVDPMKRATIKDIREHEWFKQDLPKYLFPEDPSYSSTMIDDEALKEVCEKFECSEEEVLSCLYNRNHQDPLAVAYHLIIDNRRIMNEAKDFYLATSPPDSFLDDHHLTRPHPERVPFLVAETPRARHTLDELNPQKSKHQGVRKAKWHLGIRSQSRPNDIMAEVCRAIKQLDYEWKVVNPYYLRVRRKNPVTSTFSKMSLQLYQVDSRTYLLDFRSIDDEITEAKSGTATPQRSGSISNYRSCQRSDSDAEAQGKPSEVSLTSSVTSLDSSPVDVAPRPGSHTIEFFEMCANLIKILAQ
T3 sequence (P80386 whole entry partner): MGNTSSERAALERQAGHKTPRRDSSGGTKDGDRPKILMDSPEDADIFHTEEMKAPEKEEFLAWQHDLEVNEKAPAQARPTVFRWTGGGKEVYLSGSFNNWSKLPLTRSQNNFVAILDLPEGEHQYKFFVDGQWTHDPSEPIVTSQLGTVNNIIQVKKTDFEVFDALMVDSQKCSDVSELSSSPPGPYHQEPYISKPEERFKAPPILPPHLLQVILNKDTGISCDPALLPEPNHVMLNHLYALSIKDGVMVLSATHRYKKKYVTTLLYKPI
T3 sequence (P80385 whole entry): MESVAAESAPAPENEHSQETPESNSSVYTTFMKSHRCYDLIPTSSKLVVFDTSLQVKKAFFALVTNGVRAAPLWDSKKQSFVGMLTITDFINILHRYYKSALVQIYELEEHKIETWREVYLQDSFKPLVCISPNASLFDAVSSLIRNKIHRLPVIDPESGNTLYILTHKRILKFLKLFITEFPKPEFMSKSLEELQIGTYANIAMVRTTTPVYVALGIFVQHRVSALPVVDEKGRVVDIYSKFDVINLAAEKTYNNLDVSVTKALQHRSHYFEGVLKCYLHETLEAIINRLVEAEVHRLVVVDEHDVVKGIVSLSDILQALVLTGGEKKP
T1 sequence (P54645 with tags, fused parts or gaps limits assumed): as the sequence (P54645 with tags, fused parts or gaps limits assumed) above
T1 sequence (P80386 whole entry partner, the tested form may be a part): as the sequence (P80386 whole entry partner) above
T1 sequence (P80385 whole entry, the tested form may be a part): as the sequence (P80385 whole entry) above
T5 sequence (P54645 with tags, fused parts or gaps limits assumed): as the sequence (P54645 with tags, fused parts or gaps limits assumed) above
T5 sequence (P80386 whole entry partner): as the sequence (P80386 whole entry partner) above
T5 sequence (P80385 whole entry): as the sequence (P80385 whole entry) above
T2 sequence (P54645 with tags, fused parts or gaps limits assumed): as the sequence (P54645 with tags, fused parts or gaps limits assumed) above
T2 sequence (P80386 whole entry partner): as the sequence (P80386 whole entry partner) above
T2 sequence (P80385 whole entry): as the sequence (P80385 whole entry) above
T4 sequence (P54645 407-559 partner limits assumed): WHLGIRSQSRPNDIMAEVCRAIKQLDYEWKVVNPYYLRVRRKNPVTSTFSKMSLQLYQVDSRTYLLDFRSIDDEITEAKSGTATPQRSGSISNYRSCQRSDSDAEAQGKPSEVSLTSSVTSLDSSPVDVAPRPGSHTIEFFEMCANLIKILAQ
T4 sequence (O43741 187-272 partner limits assumed): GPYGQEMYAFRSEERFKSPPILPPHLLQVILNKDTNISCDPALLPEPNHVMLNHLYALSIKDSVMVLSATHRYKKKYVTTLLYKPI
T4 sequence (P80385 whole entry, the tested form may be a part): as the sequence (P80385 whole entry) above

| SMILES | p-AMPK levels, pre-conditioned HEK cells [1] | p-ACC levels (substrate phosphorylation), pre-conditioned HEK cells [2] | detachment of cells from tissue culture plates (HEK cells) | displacement of MANT-ADP: full-length AMPK compared with regulatory fragment [3] | inhibition of the protein-bound signal of MANT-ADP in the triplicate similarity screen ([3]; final concentration 45 μM) | IC50 ([3]; Example 4, read-out: binding IC50) [nM] | protection of p-AMPK from dephosphorylation [4] | activity of purified p-AMPK (phosphorylation of GST-ACC peptide), dose response (purified p-AMPK; compared to DMSO control) | dose response when repeated with an additional concentration at 1 μM (purified p-AMPK; high p-GST-ACC peptide at both 1 and 40 μM, data not shown) | substrate phosphorylation at higher doses (purified p-AMPK; higher doses) | p-ACC levels, serum-treated HEK cells ([2]; 10% serum) | IC50 [5] [nM] | IC50 ([3]; MANT-ADP with no protein = 100% inhibition, read-out: IC50, inhibition of the increase in MANT-ADP fluorescence) [nM] | Kd (full-length His-AMPK) [nM] |
| --- | --- | --- | --- | --- | --- | --- | --- | --- | --- | --- | --- | --- | --- | --- |
| N#Cc1c(O)c2c(-c3ccc(-c4ccccc4O)cc3)csc2[nH]c1=O [Example A-769662, reference compound] | increased | increased |  |  |  |  |  |  |  |  |  |  |  |  |
| O=C1/C(=C/c2ccc(-c3ccc(Cl)c(Cl)c3)o2)SC(=S)N1CCS(=O)(=O)O [BAS 02250954, 2-[(5Z)-5-{[5-(3,4-Dichlorophenyl)furan-2-yl]methylidene}-4-oxo-2-sulfanylidene-1,3-thiazolidin-3-yl]ethane-1-sulfonic acid] | high levels of p-AMPK | no change in substrate phosphorylation; also recorded: does not increase | caused many cells to detach | greater concentration | reproducibly inhibited | < 5000 | protected p-AMPK from dephosphorylation | significantly inhibited substrate phosphorylation at low doses; also recorded: inhibits substrate phosphorylation | complete U-shaped dose response | permitted substrate phosphorylation | decreased substrate phosphorylation |  |  |  |
| Nc1ncnc2c1ncn2[C@@H]1O[C@H](COP(=O)(O)OP(=O)(O)O)[C@@H](O)[C@H]1O [ADP, adenosine diphosphate, reference compound] |  |  |  | same binding IC50; also recorded: same concentration |  |  |  |  |  |  |  | 400 | 300 | 13000 |
